This is an account of results in US20160354373A1, “METHODS OF TREATING ACUTE T CELL LEUKEMIA” (priority 2015, published 2016).

Data set [1] has as its system Myc expression signatures. To be noted: AMD3100 or vehicle for 4 days in vitro, OP9 co-culture.
Procedure: FIG. 14A is a heat map depicting differentially expressed genes (Myc targets are indicated) in primary mouse T-ALL cells after 4 day culture with OP9 cells in the presence of AMD3100 or vehicle (right; n=3). […] Data represents 3 different experiments, with cells pooled from 1-3 mice per experiment.
Primary mouse T-ALL cells isolated from spleen were maintained on OP9 stromal cells in OptiMEM+GlutaMAX (Invitrogen) supplemented with 10% FBS, 5 ng/ml IL-7, penicillin and streptomycin, and 55 μM (3-mercaptoethanol and passaged every 3-4 days onto a fresh feeder layer. OP9 cells were pre-treated with 7.5 ng/mL mitomycin C (Sigma) to prevent feeder cell division. Mouse ETP T-ALL (Treanor et al., “Interleukin-7 Receptor Mutants Initiate Early T Cell Precursor Leukemia in Murine Thymocyte Progenitors with Multipotent Potential,” J. Exp. Med. 211:701-713 (2014), which is hereby incorporated by reference in its entirety) and a T-ALL cell line generated by ENU mutagenesis carrying a Notch1 PEST domain mutation (G7084 (ins)C7085) were maintained on OP9-DLL4 feeders. […]
Total RNA was extracted from samples using RNeasy Plus Mini Kit (Life Technologies). […] RNA libraries were then sequenced on the Illumina HiSeq 2000 or 2500 using 50 bp single-end reads. […]
For data set [2] the following is noted: recent clinical trials data; cited from earlier work.
Data set [3] relates to Myc. To be noted: 8 hours after s.c. AMD3465, 2 doses of 25 mg/kg 4 hours apart, vs PBS; wild-type T-ALL.
Procedure: Whole cell lysates were prepared in RIPA buffer (50 mM Tris-HCl, 150 mM NaCl, 1% NP-40, 0.25% sodium deoxycholate, 5 mM EDTA) containing complete Mini protease and phosSTOP phosphatase inhibitors (Roche) and resolved by 8% SDS-PAGE gel electrophoresis. Proteins were transferred to nitrocellulose membranes (Bio-Rad) and probed with primary antibodies raised against c-Myc (polyclonal, Cell Signaling Technologies); 0-tubulin (polyclonal, Abcam); and β-actin (clone C4, Santa Cruz Biotechnologies). Following incubation with horseradish peroxidase (HRP)-conjugated anti-mouse or anti-rabbit secondary antibodies (Jackson laboratories), proteins were detected using the SuperSignal West Pico ECL Kit (Thermo Scientific) and exposed to film or imaged using the ChemiDoc MP system (Bio-rad).
For inhibition of CXCR4 in primary mouse T-ALL, mice were anaesthetized by isoflurane inhalation and implanted subcutaneously with osmotic pumps (model 2002; Alzet) filled with 40 mM AMD3465 (Tocris) or PBS (flow rate 0.5 ul/hour).
Data set [4] relates to Notch1-ΔE-IRES-GFP+ T-ALL cells. To be noted: AMD3465 20 nmol/hour via s.c. osmotic pump vs PBS; two weeks of treatment; started at >5% GFP+ blasts in blood.
Source text: After GFP^+ leukemic cells reached 5% of white blood cells, osmotic pumps filled with AMD3465 (20 nmol/hour) or vehicle (PBS) were implanted subcutaneously (s.c.). The graphs show T-ALL cell numbers in the indicated tissues 2 weeks after treatment initiation. Bars represent the mean. […] After leukemia reached 5% of white blood cells, osmotic pumps filled with AMD3465 (25 nmol/hour) or vehicle were implanted s.c. Analysis was 2 weeks after treatment initiation. […] Values represent the mean frequency of hCD45^+ cells+/−SEM. […] Bars represent the mean.
For inhibition of CXCR4 in primary mouse T-ALL, mice were anaesthetized by isoflurane inhalation and implanted subcutaneously with osmotic pumps (model 2002; Alzet) filled with 40 mM AMD3465 (Tocris) or PBS (flow rate 0.5 ul/hour). […] For CXCR4 inhibition in xenografted patient T-ALL, NOD-SCID mice were implanted with osmotic pumps filled with 50 mM AMD3465 or PBS. Mice implanted with osmotic pumps were sacrificed 14 days later for analysis of tumor burden by flow cytometry.
To this end, two cohorts of lethally irradiated mice were transplanted with Notch1-ΔE-IRES-GFP^+ bone marrow progenitor cells, and after >5% peripheral blood lymphocytes constituted GFP^+ leukemic blasts, AMD3465 (20 nmol/hour) or PBS was administered via osmotic pump.
Data set [5] deals with primary human T-ALL cells (hCD45+). Particulars: two weeks.
Source text: After GFP^+ leukemic cells reached 5% of white blood cells, osmotic pumps filled with AMD3465 (20 nmol/hour) or vehicle (PBS) were implanted subcutaneously (s.c.). […] After leukemia reached 5% of white blood cells, osmotic pumps filled with AMD3465 (25 nmol/hour) or vehicle were implanted s.c. Analysis was 2 weeks after treatment initiation. […] Values represent the mean frequency of hCD45^+ cells+/−SEM.
For human xenograft studies, NOD-SCID donor mice were used. […] 1-5×10^6 cells patient cells were transplanted into immunodeficient mouse strains via retro-orbital injection. Cells from spleen of these primary recipients were used for experiments.
For CXCR4 inhibition in xenografted patient T-ALL, NOD-SCID mice were implanted with osmotic pumps filled with 50 mM AMD3465 or PBS. Mice implanted with osmotic pumps were sacrificed 14 days later for analysis of tumor burden by flow cytometry.
First, the primary human leukemia cells were expanded in immune-deficient NOD/MrkBomTac-Prkdc^scid (NOD-SCID) hosts for 6 weeks. Subsequently, two million human T-ALL cells were transplanted into secondary NOD-SCID hosts and peripheral blood was monitored for the appearance of human CD45+ (hCD45+) leukemic cells. Once leukemia constituted >5% of white blood cells in blood, treatment began with AMD3465 or vehicle using osmotic pumps. Two weeks later, animals were sacrificed and the leukemia burden was assessed.
The test system of data set [6] is primary mouse T-ALL cells. To be noted: MIG-IRES-GFP-cMyc vs control transduced cells; 4 days OP9 co-culture.
Procedure: Data represents 1 experiment with 3 replicates per group for each AMD3465 concentration tested. Error bars represent +/−SD.
(§1) Primary mouse T-ALL cells isolated from spleen were maintained on OP9 stromal cells in OptiMEM+GlutaMAX (Invitrogen) supplemented with 10% FBS, 5 ng/ml IL-7, penicillin and streptomycin, and 55 μM (3-mercaptoethanol and passaged every 3-4 days onto a fresh feeder layer. OP9 cells were pre-treated with 7.5 ng/mL mitomycin C (Sigma) to prevent feeder cell division. Mouse ETP T-ALL (Treanor et al., “Interleukin-7 Receptor Mutants Initiate Early T Cell Precursor Leukemia in Murine Thymocyte Progenitors with Multipotent Potential,” J. Exp. Med. 211:701-713 (2014), which is hereby incorporated by reference in its entirety) and a T-ALL cell line generated by ENU mutagenesis carrying a Notch1 PEST domain mutation (G7084 (ins)C7085) were maintained on OP9-DLL4 feeders. AMD3100 octahydrochloride hydrate (10 ug/mL in water; Sigma), AMD3465 hexahydrobromide (50 ug/mL in water; Tocris or Cayman Chemical) or the corresponding vehicle was added to culture media at the start of the culture period.
The subject of data set [7] is Myc. Particulars: 4 days culture on OP9 cells with AMD3465 or vehicle, in vitro.
Procedure: as §1

Consider `c1cc(CN2CCCNCCNCCCNCC2)ccc1CN1CCCNCCNCCCNCC1` [AMD3100, 1,1′-[1,4-phenylenebis(methylene)]bis[1,4,8,11-tetraazacyclotetradecane]], for which the “enrichment of genes down-regulated by treatment in Myc DNA binding databases (GSEA)” value in data set [1] is reported as “significant enrichment”. Further, in data set [2], the absorption entry was “absorbed quickly” and the tolerability entry was “well tolerated”.
For the compound `c1ccc(CNCc2ccc(CN3CCCNCCNCCCNCC3)cc2)nc1` [AMD3465, N[1,4,8,11-tetraazacyclotetradecanyl-1,4-phenylene-bis-(methylene)]-2-aminomethyl-pyridine], the “Myc protein levels in T-ALL cells” value in the data set with Myc [3] is recorded as “reduced”. For the same compound, in data set [4], the “leukemia burden across all tissues surveyed (T-ALL cell numbers)” value is on record as “substantial reduction”. Also, the “number of hCD45+ cells in blood and spleen” value in data set [5] (AMD3465 25 nmol/hour via s.c. osmotic pump vs vehicle, patient 1 and 2 xenografts in NOD-SCID) is recorded as “significantly reduced”. For the same compound, the “T-ALL infiltration of brain, liver and lungs (histo-pathological analysis)” value in data set [5] (AMD3465 via osmotic pump vs PBS, patient 1 xenograft) is recorded as “virtually leukemia-free”. Also, the splenomegaly result in data set [5] (AMD3465 via osmotic pump vs vehicle (PBS), xenografted NOD-SCID mice) is reported as “substantially decreased”. For the same compound, the “proliferation of T-ALL cells in the presence of AMD3465 upon Myc overexpression” value in data set [6] is listed as “partially restored”. Moreover, in the data set on Myc [7], the “Myc protein expression (MYC-GFP fusion allele) in mouse LIC cells” value is recorded as “Reduced”.
